We go through two molecules from patent publication US10669238B2, “Irreversible bruton's tyrosine kinase inhibitor” (HEFEI INSTITUTES OF PHYSICAL SCIENCE, CHINESE ACADEMY OF …, priority 2016, dated 2020).

For test [1], the system named is acute promyelocytic leukemia cell line NB-4 (Lu+). The test is described as follows: Cell proliferation (Cell Titer-Glo), NB4. In kind it is cell-based. Particulars: NB4, 72 hours; read-out: Effects on cell proliferation (GI50). As for the experimental part: (§1) The selectivity of Compound 1 in inhibiting the proliferation of cancer cells was further evaluated by testing the effect of Btk inhibitors on the growth of cancer cells. […]
(§2) In this example different concentrations (0.000508 μM, 0.00152 μM, 0.00457 μM, 0.0137 μM, 0.0411 μM, 0.123 μM, 0.370 μM, 1.11 μM, 3.33 μM, 10 μM) of Compound 1 and Compound 6 were respectively added into the above cells which were then cultured for 72 hours. The number of viable cells was determined via quantitative determination of ATP in living cells by using Cell Titer-Glo® (Promega, the USA) Chemical Luminescent Cell Viability Assay kit.
(In general: Cellular ATP, detected with luciferase, serves as a proxy for viable cell number.)

For test [2], the system named is diffuse large B-cell lymphoma cell lines Pfeiffer. The experiment in a line: Cell proliferation (Cell Titer-Glo), Pfeiffer. In kind it is cell-based. The conditions noted are these: Homo sapiens, 72 hours, read-out: Effects on cell proliferation (GI50). As to the method:
as §1, §2

Test [3] has as its system acute myeloid leukemia cell lines MOLM16. The experiment in a line: Cell proliferation (Cell Titer-Glo), MOLM-16. In kind it is cell-based. Particulars: MOLM-16, 72 hours, read-out: Effects on cell proliferation (GI50). As to the method:
as §1, §2

Test [4] has as its target T1, TEL-JAK3-BaF3 cells (stably expressing TEL-JAK3 activated kinase) (Homo sapiens, UniProt P52333).
T1 construct: expressed in transfected cells; host or cells: mouse BaF3 cells, retroviral MSCV-Puro; the other entry of the earlier key: ETV6 (P41212, Transcription factor ETV6)
The experiment in a line: Cell proliferation (Cell Titer-Glo), BaF3-tel-JAK3. In kind it is cell-based. Particulars: BaF3-tel-JAK3 (mouse BaF3 cells), 72 hours; read-out: Effects on cell proliferation (GI50). As for the experimental part:
as §1, §2

Test [5] deals with U2932 (B-cell lymphoma cells). The experiment in a line: Cell apoptosis (PARP and Caspase 3 cleavage) in U2932. In kind it is cell-based. As to the method:
(§3) Various concentrations (0.5 μM, 1 μM, 5 μM, 10 μM) of Compound 1 was administered to Pfeiffer (human diffuse large cell lymphoma B lymphocytes, purchased from Cobioer Biosciences Co., LTD (Nanjing)) and U2932 (B-cell lymphoma cells, purchased from ATCC) in order to confirm whether cell death after the administration was caused by apoptosis or necrosis. After 48 hours, effects of Compound 1 on protein cleavage of the DNA repairase poly(ADP-ribose) polymerase (PARP) and Caspase (cysteinyl aspartate-specific proteinase) 3 that were closely related to cell apoptosis was examined.

Test [6] deals with Pfeiffer (human diffuse large cell lymphoma B lymphocytes). The test is described as follows: Cell cycle distribution by flow cytometry in Pfeiffer. Particulars: 10 μM, 48 hours. In kind it is cell-based. As for the experimental part: (§4) Effect of Compound 1 on cell cycle distribution was examined respectively in Pfeiffer (human diffuse large cell lymphoma B lymphocytes, purchased from Cobioer Biosciences Co., LTD (Nanjing)) and U2932 (B-cell lymphoma cells, purchased from ATCC) cells in order to study the growth cycle to which the cells were blocked upon compound administration. The above cells were treated with various concentrations (0.5 μM, 1 μM, 5 μM, 10 μM) of Compound 1, 10 μM of PC132765 and 10 μM of Compound 6 (FIG. 4a) or 1 μM of Compound 6 (FIG. 4b) for 48 hours, and then cells were collected and washed twice with 1×PBS buffer, and fixed with 75% ethanol at −20° C. for 24 hours, washed again with 1×PBS buffer twice, followed by addition of 0.5 mL 1×PBS buffer and 0.5 mL of PI dyeing liquor (purchased from BD Bioscience, USA), and then the cells were placed in the dark at 37° C. for dyeing 15 minutes and the cell cycle distribution was detected by flow cytometry (BD FACS Calibur).
(§5) Experiments shown in FIGS. 4a-4b reflected that Compound 1 influenced the cell cycle of both two cell strains.
In general terms: A flow cytometer gives signals particle by particle.

For test [7], the system named is phosphorylation of tyrosine Y223 on Btk. The test is described as follows: Effects on BTK Y223 and downstream signaling pathway proteins in cells (anti-IgM stimulation). In kind it is cell-based, human. The conditions noted are these: Compound 1 in MEC-2, Pfeiffer, Ramos, TMD8, U2932; Compound 35 in MEC-1; 4 hours, then anti-IgM 10 mins. From the text:
By assaying a number of cellular biochemical and functional endpoints, the properties of the compounds were further characterized. […] In this experiment, PC132765 (purchased from Shanghai Haoyuan Chemexpress Co., Ltd.), CGI11746 (purchased from Shanghai Haoyuan Chemexpress Co., Ltd.) and Compound 6 (prepared herein) were used as control (see FIGS. 2a-2f).
Effects of the compounds on phosphorylation of BTKY223, BTKY551, PLCγ1Y783, PLCγ2Y759, PLCγ2Y1217, P—NF-κB P65, P-AKT Ser473, Erk Thr202/Tyr204 and the like were determined (FIGS. 2a-2f).

In test [8] the test system is Pfeiffer (human diffuse large cell lymphoma B lymphocytes). The experiment in a line: Cell apoptosis (PARP and Caspase 3 cleavage) in Pfeiffer. In kind it is cell-based. Particulars: 48 hours. As for the experimental part:
as §3

Test [9] deals with U2932 (B-cell lymphoma cells). The experiment in a line: Cell cycle distribution by flow cytometry in U2932. In kind it is cell-based. The conditions noted are these: U2932, 10 μM, 48 hours. As for the experimental part:
as §4, §5

Bounds are passed on as bounds.

T1 sequence (P52333 822-1111 limits assumed): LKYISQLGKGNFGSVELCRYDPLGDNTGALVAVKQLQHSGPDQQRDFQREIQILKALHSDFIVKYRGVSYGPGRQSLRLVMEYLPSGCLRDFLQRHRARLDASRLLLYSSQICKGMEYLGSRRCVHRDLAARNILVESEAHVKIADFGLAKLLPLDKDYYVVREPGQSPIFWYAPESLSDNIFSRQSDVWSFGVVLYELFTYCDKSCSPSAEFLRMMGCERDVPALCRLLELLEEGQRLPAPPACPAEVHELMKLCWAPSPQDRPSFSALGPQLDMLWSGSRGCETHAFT

As for `CCC(=O)Nc1cc(Nc2cc(-c3cccc(NC(=O)c4ccc(C(C)(C)C)cc4)c3C)cn(C)c2=O)ccc1C(=O)N1CCOCC1` [Compound 6, N-(3-(5-((3-propanamide-4-(morpholin-4-carbonyl)phenyl)amino)-1-methyl-6-oxo-1,6-dihydropyridin-3-yl)-2-methylphenyl)-4-(tert-butyl)benzamide], the GI50 in test [1] was > 10 µM; in [2] it was > 10 µM; in test [3] it was > 10 µM; in test [4] it was 4.6 µM.

Regarding `C=CC(=O)Nc1cc(Nc2cc(-c3cccc(NC(=O)c4ccc(C(C)(C)C)cc4)c3C)cn(C)c2=O)ccc1C(=O)N1CCOCC1` [Compound 1, N-(3-(5-((3-acrylamide-4-(morpholin-4-carbonyl)phenyl)amino)-1-methyl-6-oxo-1,6-dihydropyridin-3-yl)-2-methylphenyl)-4-(tert-butyl)benzamide], the “cleavage of DNA repairase poly(ADP-ribose) polymerase (PARP)” value in test [5] (U2932, 10 μM, 48 hours) is recorded as “significant cleavage”; in test [8] (10 μM), “significant cleavage”. For the same molecule, the cell apoptosis result is listed as “could lead to cell apoptosis” in test [5] (U2932, 48 hours) and “could lead to cell apoptosis” in [8]. In addition, the “effect on cell cycle” value in [6] and in [9] was “significant cell cycle arrest in G0-G1” each time. In addition, the “phosphorylation of tyrosine Y223 on Btk” value in test [7] was “selectively and significantly inhibit phosphorylation of tyrosine Y223 on Btk”. Also, the GI50 in test [1] is 6.6 µM; in test [2], 4.5 µM; in test [3], 3.5 µM; in test [4], 3.2 µM.
